# Results: ChEMBL document CHEMBL5653634, “The effect of the PKC inhibitor GF109203X on the release of Ca2+ from internal stores and Ca2+ entry in DDT1 MF-2 cells” (1996)
# The source made the active and inactive calls. No cut-off for these calls is given here.
# Assays:
# [1] = Inhibition of PKC in golden hamster DDT1-MF2 cells by measuring calcium 2+ uptake at 10 uM preincubated for 45 mins followed by extracellular calcium 2+ addition measured after 5 mins by liquid scintillation counting analysis (reference value: 100 +/- 6 %); set-up: species or system Mesocricetus auratus; scale not given: the % may be the effect or the level left; conditions: time 50 min
# [2] = Inhibition of PKC in golden hamster DDT1-MF2 cells assessed as decrease in thapsigargin-induced calcium release by measuring cytoplasmic calcium concentration at 5 uM incubated for 45 mins followed by thapsigargin, PMA and LaCl3 addition measured after 48 hrs; set-up: species or system Mesocricetus auratus; conditions: time 2925 min, 48.75 h
# [3] = Inhibition of PKC in golden hamster DDT1-MF2 cells by measuring cytoplasmic calcium concentration at 5 uM incubated for 10 mins in presence of LaCl3; set-up: species or system Mesocricetus auratus
# [4] = Inhibition of PKC in golden hamster DDT1-MF2 cells by measuring calcium 2+ uptake at 5 uM preincubated for 45 mins followed by extracellular calcium 2+ addition measured after 5 mins by liquid scintillation counting analysis (reference value: 100 +/- 6 %); set-up: species or system Mesocricetus auratus; scale not given: the % may be the effect or the level left; conditions: time 50 min
# [5] = Inhibition of PKC in golden hamster DDT1-MF2 cells by measuring cytoplasmic calcium concentration at 5 uM incubated for 10 mins; set-up: species or system Mesocricetus auratus
# DDT1-MF2 [6] = test: Inhibition of PKC in golden hamster DDT1-MF2 cells assessed as decrease in histamine-induced calcium release by measuring cytoplasmic calcium concentration incubated for 45 mins followed by histamine and LaCl3 addition; format: cell-based; conditions: Mesocricetus auratus
# [7] = Inhibition of PKC in golden hamster DDT1-MF2 cells assessed as decrease in histamine-induced calcium release by measuring cytoplasmic calcium concentration at 5 uM incubated for 45 mins in presence of LaCl3; set-up: species or system Mesocricetus auratus; conditions: 0.75 h
# [8] = Inhibition of PKC in golden hamster DDT1-MF2 cells assessed as inhibition of histamine-induced calcium response by measuring maximal cytoplasmic calcium concentration at 5 uM preincubated for 45 mins in presence of extracellular calcium 2+ followed by histamine stimulation; set-up: species or system Mesocricetus auratus; conditions: 0.75 h
# [9] = Inhibition of PKC in golden hamster DDT1-MF2 cells by measuring calcium 2+ uptake at 5 uM preincubated for 45 mins followed by extracellular calcium 2+ and histamine addition measured after 5 mins by liquid scintillation counting analysis (reference value: 100 +/- 6 %); set-up: species or system Mesocricetus auratus; scale not given: the % may be the effect or the level left; conditions: time 50 min
# DDT1-MF2 [10] = test: Inhibition of PKC in golden hamster DDT1-MF2 cells assessed as increase in inositol 1,4,5-trisphosphate formation at 5 uM incubated for 45 mins by liquid scintillation counting analysis; format: cell-based; conditions: Mesocricetus auratus
# [11] = Inhibition of PKC in golden hamster DDT1-MF2 cells assessed as decrease in thapsigargin-induced calcium release by measuring cytoplasmic calcium concentration at 5 uM incubated for 45 mins followed by thapsigargin and LaCl3 addition measured after 5 mins; set-up: species or system Mesocricetus auratus; conditions: time 50 min
# [12] = Inhibition of PKC in golden hamster DDT1-MF2 cells assessed as inhibition of histamine-induced calcium response by measuring cytoplasmic calcium concentration at 5 uM preincubated for 45 mins in presence of extracellular calcium 2+ followed by histamine stimulation measured after 5 mins; set-up: species or system Mesocricetus auratus; conditions: time 50 min
# [13] = Inhibition of PKC in golden hamster DDT1-MF2 cells assessed as decrease in Ins(1,4,5)P3-induced calcium 2+ efflux at 5 uM incubated for 14 mins by liquid scintillation counting analysis relative to control; conditions: Mesocricetus auratus, DDT1-MF2, 14 min
# [14] = Inhibition of PKC in golden hamster DDT1-MF2 cells assessed as decrease in calcium 2+ efflux at 5 uM incubated for 10 mins by liquid scintillation counting analysis relative to control; conditions: Mesocricetus auratus, DDT1-MF2, 10 min
# [15] = Inhibition of PKC in golden hamster DDT1-MF2 cells assessed as inhibition of histamine-induced calcium response by measuring cytoplasmic calcium concentration at 5 uM preincubated for 45 mins in absence of extracellular calcium 2+ followed by histamine stimulation; set-up: species or system Mesocricetus auratus; conditions: 0.75 h
# DDT1-MF2 [16] = test: Inhibition of PKC in golden hamster DDT1-MF2 cells assessed as decrease in histamine-induced inositol 1,4,5-trisphosphate formation at 5 uM incubated for 45 mins followed by histamine stimulation by liquid scintillation counting analysis; format: cell-based; conditions: Mesocricetus auratus
# [17] = Inhibition of PKC in golden hamster DDT1-MF2 cells by measuring basal cytoplasmic calcium concentration at 5 uM incubated for 45 mins in presence of extracellular calcium 2+; set-up: species or system Mesocricetus auratus; conditions: 0.75 h
# [18] = Inhibition of PKC in golden hamster DDT1-MF2 cells by measuring basal cytoplasmic calcium concentration at 5 uM incubated for 45 mins in absence of extracellular calcium 2+; set-up: species or system Mesocricetus auratus; conditions: 0.75 h
# [19] = Inhibition of PKC in golden hamster DDT1-MF2 cells by measuring calcium 2+ uptake at 5 uM preincubated for 45 mins followed by extracellular calcium 2+ and thapsigargin addition measured after 5 mins by liquid scintillation counting analysis (reference value: 100 +/- 6 %); set-up: species or system Mesocricetus auratus; scale not given: the % may be the effect or the level left; conditions: time 50 min
# [20] = Inhibition of PKC in golden hamster DDT1-MF2 cells assessed as decrease in thapsigargin-induced calcium release by measuring basal cytoplasmic calcium concentration at 5 uM incubated for 45 mins followed by thapsigargin and LaCl3 addition measured after 5 mins; set-up: species or system Mesocricetus auratus; conditions: time 50 min
# DDT1-MF2 [21] = test: Inhibition of PKC in golden hamster DDT1-MF2 cells assessed as decrease in histamine-induced inositol 1,4,5-trisphosphate formation at 5 uM incubated for 45 mins in presence of PMA followed by histamine stimulation by liquid scintillation counting analysis; format: cell-based; conditions: Mesocricetus auratus
# DDT1-MF2 [22] = test: Inhibition of PKC in golden hamster DDT1-MF2 cells assessed as decrease in thapsigargin-induced calcium release by measuring cytoplasmic calcium concentration at 5 uM incubated for 45 mins followed by thapsigargin and LaCl3 addition; format: cell-based; conditions: Mesocricetus auratus
# [23] = Inhibition of PKC in golden hamster DDT1-MF2 cells by measuring basal cytoplasmic calcium concentration at 0.5 uM incubated for 5 mins in presence of extracellular calcium 2+; set-up: species or system Mesocricetus auratus
# [24] = Inhibition of PKC in golden hamster DDT1-MF2 cells by measuring basal cytoplasmic calcium concentration at 0.5 uM incubated for 5 mins in absence of extracellular calcium 2+; set-up: species or system Mesocricetus auratus
# [25] = Inhibition of PKC in golden hamster DDT1-MF2 cells assessed as decrease in histamine-induced inositol 1,4,5-trisphosphate formation by measuring inositol 1,4,5-trisphosphate level measured per 10^6 cells at 1 uM incubated for 48 hrs followed by histamine addition; set-up: species or system Mesocricetus auratus
# [26] = Inhibition of PKC in golden hamster DDT1-MF2 cells assessed as inhibition of histamine-induced calcium response by measuring cytoplasmic calcium concentration at 0.5 uM preincubated for 5 mins in absence of extracellular calcium 2+ followed by histamine stimulation; set-up: species or system Mesocricetus auratus
# [27] = Inhibition of PKC in golden hamster DDT1-MF2 cells assessed as inhibition of histamine-induced calcium response by measuring maximal cytoplasmic calcium concentration at 0.5 uM preincubated for 5 mins in presence of extracellular calcium 2+ followed by histamine stimulation; set-up: species or system Mesocricetus auratus
# [28] = Inhibition of PKC in golden hamster DDT1-MF2 cells by measuring inositol 1,4,5-trisphosphate level measured per 10^6 cells at 1 uM incubated for 48 hrs; set-up: species or system Mesocricetus auratus
# DDT1-MF2 [29] = test: Inhibition of PKC in golden hamster DDT1-MF2 cells assessed as decrease in histamine-induced inositol 1,4,5-trisphosphate formation at 1 uM incubated for 5 mins followed by histamine stimulation by liquid scintillation counting analysis; format: cell-based; conditions: Mesocricetus auratus
# [30] = Inhibition of PKC in golden hamster DDT1-MF2 cells assessed as inhibition of histamine-induced calcium response by measuring maximal cytoplasmic calcium concentration at 0.5 uM preincubated for 5 mins in presence of extracellular calcium 2+ followed by histamine stimulation measured after 5 mins; set-up: species or system Mesocricetus auratus; conditions: time 10 min
# [31] = Inhibition of PKC in golden hamster DDT1-MF2 cells by measuring calcium 2+ uptake at 1 uM preincubated for 45 mins followed by extracellular calcium 2+ addition measured after 5 mins by liquid scintillation counting analysis (reference value: 100 +/- 6 %); set-up: species or system Mesocricetus auratus; scale not given: the % may be the effect or the level left; conditions: time 50 min
smiles,measurement,setting,value
Cn1cc(C2=C(c3cn(CCCSC(=N)N)c4ccccc34)C(=O)NC2=O)c2ccccc21 [BISINDOLYLMALEIMIDE IX],Activity,[1],135%
CN(C)CCCn1cc(C2=C(c3c[nH]c4ccccc34)C(=O)NC2=O)c2ccccc21 [GF-109203],Activity,[2],73 nM
same,Activity,[3],7 nM
same,Activity,[4],167%
same,Activity,[5],9 nM
same,inhibition,DDT1-MF2 [6],Dose-Dependent Effect
same,Activity,[7],38 nM
same,Activity,[8],63 nM
same,Activity,[9],155%
same,inhibition,DDT1-MF2 [10],Active
same,Activity,[11],68 nM
same,Activity,[12],42 nM
same,inhibition at 5 µM,[13],58%
same,inhibition at 5 µM,[14],93%
same,Activity,[15],40 nM
same,inhibition,DDT1-MF2 [16],inactive
same,Activity,[17],102 nM
same,Activity,[18],82 nM
same,Activity,[19],238%
same,Activity,[20],105 nM
same,inhibition,DDT1-MF2 [21],inactive
same,inhibition,DDT1-MF2 [22],Active
CCCCCCCCCCCCCC(=O)O[C@@H]1[C@@H](C)[C@@]2(O)[C@@H](C=C(CO)C[C@]3(O)C(=O)C(C)=C[C@@H]23)[C@@H]2C(C)(C)[C@]12OC(C)=O [PHORBOL MYRISTATE ACETATE],Activity,[23],129 nM
same,Activity,[24],80 nM
same,Activity,[25],11.5 pmol
same,Activity,[26],53 nM
same,Activity,[27],50 nM
same,Activity,[28],11.6 pmol
same,inhibition,DDT1-MF2 [29],Active
same,Activity,[30],0 nM
C/C=C(/C)C(=O)O[C@H]1C(C)=C2[C@H]([C@@H]1OC(=O)CCCCCCC)[C@@](C)(OC(C)=O)C[C@H](OC(=O)CCC)[C@@]1(O)[C@H]2OC(=O)[C@@]1(C)O [THAPSIGARGIN],Activity,[31],221%
